Series [1] can be described thus: retention and selective release of cargo from alginate-in-oil-in-alginate fibers. The format is physicochemical.
Excerpt: The concentration of alginate-PVA solution in the inner alginate compartment was kept the same as the alginate fiber. As for the cargos, 0.5% (v/v) 200 nm orange fluorescent particles (FluoSpheres, Invitrogen), 1% (w/v) FITC conjugated BSA, or 0.04% (v/v) of 190 nm Dragon Green fluorescent particles (Uniform Dyed Microspheres, Bangs Laboratories, Inc.) were mixed with the alginate solution. For water-based magnetic particles, 2% (v/v) of 1 μm-magnetic polystyrene particles were mixed in the alginate solution. Chemicals not indicated with vendors were purchased from Sigma-Aldrich.
Multicompartment fibers were collected as suspensions in DI water or wound between two rotating needles controlled by a motor (Barnant Motor Mixer, Model No. 700-5412). […] For selective dissolution of the cargos from the oil compartment of the fibers, ethanol (Reagent alcohol, BDH) was added to the fiber suspensions. The de-cross-linking agent, 160 mM sodium citrate (Na3C6H5O7, Sigma-Aldrich) in DI water was used as calcium chelator to degrade the alginate fiber or inner alginate particles.
As a model particle cargo, 200 nm fluorescent nanoparticles were added to the inner alginate particle to produce fluorescent core microfibers (FIG. 2, panel a, and FIG. 8, panel a).
As a non-limiting example, ethanol was used to affect oil phase removal. The oil phase, which was a solution of mineral oil, 5% (v/v) undecanol, and 2 wt % Span 80 surfactant, was slightly miscible with ethanol, and thus was able to slowly escape the oil microcompartments in the fiber in the presence of ethanol. Alginate-in-oil-in-alginate fibers were prepared with 0.3 mg·mL^−1 of a lipophilic fluorescent dye, Nile Red, in the oil droplets, and green fluorescent nanoparticles of 190 nm diameter in the inner alginate particles; one fiber sample was immersed in water, and the second fiber sample was immersed in an ethanol/water solution.
A short description of series [2]: retention and release of dissolved compounds from hydrophobic PEG-DA droplet-in-fibers. The series is classed as physicochemical.
Excerpt: FIG. 18 illustrates hydrophobic droplet-in-fibers wrapped around needles immersed in water. On the left, the fiber precursor solution contained 76 vol % PEG250DA, 20 vol % PEG700DA and 4 vol % photoinitiator. On the right, the fiber precursor solution contained 96 vol % PEG250DA and 4 vol % photoinitiator. Both fibers contained aqueous droplets with 1 wt % erioglaucine (blue dye).
Series [3] is described as follows: dissolution of eugenol droplets embedded in the fiber in water. The series is classed as physicochemical. Conditions: 100% eugenol droplets. As to the method:
(§1) For the oil droplet compartment, mineral oil with 2 wt % Span 80 was used in general. For solidifying inner alginate droplets to prevent them from escaping the oil compartment, 5% (v/v) of calcium chloride-saturated undecanol was mixed with the oil solution. The concentrations of the cargos to be carried in the oil compartment were 0.3 mg·mL^−1 for Nile red, 0.8% (v/v) for magnetic particles in oil-phase (EMG 909, FerroTec), and 10 and 20% (v/v) for eugenol. […] The final concentration of undecanol in the oil solution was 5% (v/v). In the case of using just eugenol for the oil compartment, 2 wt % Span 80 was added to eugenol to form stable droplets.
The previously described experiments were conducted with mineral oil as the oil phase.

Series [4] has as its system Escherichia coli (E. Coli, S17-1λpir). As to the kind of experiment: antibacterial effect of eugenol oil droplets on E. coli cells encapsulated in alginate fibers. The series is classed as cell-based.
Excerpt: For the alginate fiber, 0.5-1 wt % sodium alginate (from brown algae) with 0.1-0.25 wt % poly(vinyl alcohol) (PVA; Molecular weight, 31,000-50,000) dissolved in DI water or PBS was used. PVA is a biocompatible polymer. Also, after collecting the fibers, they were rinsed with DI water or PBS, and stored in DI water to allow any water-soluble components in the fiber to be removed. […] For cell encapsulation, the alginate-PVA solution was filtered through 0.22 μm pore-sized filter prior to mixing with cells. The mammalian cells, NIH/3T3 mouse fibroblast cells (ATCC), were cultured in Dulbecco's modified Eagle medium (DMEM; ATCC) supplemented with 10% (v/v) calf bovine serum and 1% (v/v) penicillin. The cells were prepared to be 1-2×10^5 cells·mL^−1 in the final alginate solution. For encapsulating mammalian cells in the alginate fiber, a solution of 0.5 wt % alginate with 0.1 wt % PVA dissolved in PBS was used. The bacterial cells were Escherichia coli (E. Coli, S17-1λpir) that express green fluorescent protein (GFP) from a plasmid, induced by isopropyl β-D-1-thiogalactopyranoside (IPTG). More details on the cells, including plasmid construction, is recited in Drescher, et al., 2014, Curr. Biol. 24:50. The E. coli cells were prepared in the alginate solution to be 4-5×10^6 cells·mL^−1. For encapsulating bacterial cells, a solution of 1 wt % alginate with 0.25 wt % PVA dissolved in PBS was used.
as §1
Multicompartment fibers were collected as suspensions in DI water or wound between two rotating needles controlled by a motor (Barnant Motor Mixer, Model No. 700-5412). Fibers encapsulating the fibroblast cells were collected in DMEM supplemented with 10% calf bovine serum and 1% penicillin, and stored in the 5% CO2-humidified incubator at 37° C. To test the cell viability inside the multicompartment fibers, 2 μM of calcein AM and 4 μM of ethidium-homodimer-1 (EthD-1) from LIVE/DEAD Viability/Cytotoxicity kit for mammalian cells (Molecular Probes) were applied in the DMEM 1 hour prior to the observation under a fluorescent microscope. The cell viability was analyzed with the green (calcein AM) and red (EthD-1) fluorescence images using image analysis software, ImageJ (NIH). E. coli-encapsulated fibers were either collected in LB media containing 1 mM IPTG and 100 μg·mL^−1 Kanamycin (kanamycin sulfate; Fisher). For selective dissolution of the cargos from the oil compartment of the fibers, ethanol (Reagent alcohol, BDH) was added to the fiber suspensions. The de-cross-linking agent, 160 mM sodium citrate (Na3C6H5O7, Sigma-Aldrich) in DI water was used as calcium chelator to degrade the alginate fiber or inner alginate particles.
The growth of bacterial cells, Escherichia coli (E. coli), in the oil droplet-in-alginate fibers (FIG. 2, panel d) was also tested. The E. coli cells encapsulated in the fibers were suspended in the LB medium for 21 hours, and grew well inside the fibers where they completely surrounded the oil droplets (FIG. 9). The oil microcompartments of the fiber can be used to encapsulate hydrophobic drugs or antibacterial chemicals to test their effects on the cells. For example, eugenol is an antibacterial compound found in clove oil. Eugenol was dissolved in the oil compartment, in a solution comprising mineral oil with 5% (v/v) undecanol and 2 wt % Span 80. […]

Experimental findings from patent US10500167B2, “Droplet-embedded microfibers, and methods and devices for preparing and using same” (TRUSTEES OF PRINCETON UNIVERSITY, priority 2014, dated 2019) are described below.

`CCN(CC)c1ccc2nc3c4ccccc4c(=O)cc-3oc2c1` [Nile Red]: the “red fluorescence in the fibers” value in series [1] (ethanol/water solution, after a longer time) was “no further red fluorescence was observed in the fibers”. In addition, the “red fluorescence in the oil microcompartments” value in series [1] (fiber immersed over 18 hours in water) is “red fluorescence of the Nile Red dye in the oil microcompartments was observed”.
Regarding `CCN(Cc1cccc(S(=O)(=O)[O-])c1)c1ccc(C(=C2C=CC(=[N+](CC)Cc3cccc(S(=O)(=O)[O-])c3)C=C2)c2ccccc2S(=O)(=O)[O-])cc1.[Na+].[Na+]` [erioglaucine], the “retention of dissolved compound in aqueous droplets” value in series [2] (PEG-DA (MW=250 g/mol) fiber with 4 vol % photoinitiator) is “remained within the aqueous compartments”. In addition, the “release of dye from fiber” value in series [2] (fiber precursor 76 vol % PEG250DA, 20 vol % PEG700DA, 4 vol % photoinitiator, immersed in water) was “allowed the blue dye to diffuse out of the fiber”.
Turning to `C=CCc1ccc(O)c(OC)c1` [eugenol], in series [3] (over a period of 2 hours), the “diameter of eugenol droplets embedded in the fiber after dissolution” value is listed as 50 μm. The “diameter of eugenol droplets embedded in the fiber, initial” value in series [3] (start) is recorded as 120 μm. The “growth of E. coli around the oil droplets” value in series [4] (20% (v/v) eugenol droplets, after 3 hours) is listed as “slowed down around the oil droplets”. The “growth of E. coli around the rim of the droplets” value in series [4] (20% (v/v) eugenol droplets, after 15 hours) is “no growth was observed around the rim of the droplets”. Moreover, the “cell population around the oil droplets” value in series [4] (20% (v/v) eugenol-oil droplets) was “significant decrease in the cell population around the oil droplets”. Moreover, the “cell growth around the eugenol droplets compared with oil droplets with no eugenol” value in series [4] (eugenol up to 10% (v/v) in oil droplets) was “no significant difference in the cell growth”. The “overall growth rate of E. coli inside the fiber” value in series [4] (eugenol up to 10% (v/v) in oil droplets, qualitative) is on record as “reduction in the overall growth rate of E. coli”. Further, the “growth of GFP-expressing E. coli in fiber” value in series [4] (up to 10% (v/v) eugenol droplets, after 15 hours) was “grew around the oil droplets and covered most of the fibers completely”.
“fluorescein isothiocyanate (FITC) conjugated bovine serum albumin [FITC-conjugated BSA]”: the “time over which fluorescence of encapsulated cargo was observed” value in series [1] (in inner alginate particle, fiber stored in DI water) was “at least 20 hours”.
